Test results taken from patent US20250082674A1, “METHODS OF TREATING COPPER METABOLISM-ASSOCIATED DISEASES OR DISORDERS” (priority 2021, published 2025).

Tested on: ^64CuCl2 (^64Cu) intestinal absorption and hepatic copper uptake
Experiment: Example 2: Copper Absorption study, oral 64Cu PET-CT in healthy subjects
Assay type: in vivo, human
Conditions: healthy subjects; for mean SUV liver / hepatic uptake of labeled copper, comparison between treatments: 1 hour and 15 hours after oral 64Cu; for reduction of mean hepatic copper uptake: 1 hr scan post treatment, oral 64Cu, 7 days treatment
Protocol: Blood was collected at several time points to assess plasma copper kinetics. The study was carried out as a randomized, placebo-controlled intervention study. […] The study assessed the previously listed organs and the effect of anti-copper treatment by comparing the mean standard uptake value (SUV) in the organs of interest. […] The dynamic baseline scans and the subsequent static scans were compared across all treatments.

| Structure (SMILES) | mean SUV liver / hepatic uptake of labeled copper, comparison between treatments | reduction of mean hepatic copper uptake |
| --- | --- | --- |
| CC(C)(S)[C@@H](N)C(=O)O [penicillamine, (2S)-2-amino-3-methyl-3-sulfanylbutanoic acid, reference compound] | not different from placebo | approximately 25% |
| NCCNCCNCCN [trientine, N′-[2-(2-aminoethylamino)ethyl]ethane-1,2-diamine, reference compound] | significantly lower than with penicillamine | ~50% |
